Assay results published in patent US10220064B2, “Carbohydrate composition extracted from Panax ginseng and its use in the treatment of ischemic conditions” (Macau University of Science and Technology, priority 2016, dated 2019).

Tests used:
H/R-induced H9c2 cells = assay: Impact of survival pathway inhibitors on AP1-induced cardio-protection (MVS assay); conditions: with 200 μg/mL AP1; mifepristone 100 μM, tamoxifen 100 μM, L-NAME 10 μM, LY294002 40 μM, Akt inhibitor IV 10 μM, U0126 40 μM (FIG. 11)
Protocol: H9c2 cells were pre-cultured in the presence or absence of survival pathway inhibitors, including mifepristone (MP, 100 μM), tamoxifen (TX, 100 μM), L-NAME (LM, 10 μmol/L), LY294002 (LY, 40 μM), Akt inhibitor IV (IV, 10 μM), U0126 (40 μM) with or without 200 μg/mL AP1 for 1 h, and then exposed further to H/R injury. The normal group (NOR) was always maintained in normoxic condition. Cell death was assessed by MVS assay. All measurements were repeated in six wells, the results are the average of three independent experiments. All values are expressed as mean±SD. ^^^P<0.001 vs. NOR, ***P<0.001 vs. H/R, ^##P<0.01 vs. AP1 under H/R, ^###P<0.001 vs. AP1 under H/R.
To examine the effectiveness of RSE and AP1 on H9c2 cells under hypoxia/reoxygenation conditions, the cells were cultured under normoxic conditions (95% air/5% CO2) overnight; then the cells were washed twice with Krebs-Ringer Bicarbonate buffer (composition in mM: NaCl 115, KCl 4.7, CaCl2 2.5, KH2PO4 1.2, MgSO4 1.2, NaHCO3 24, HEPES 10; pH 7.4) balanced with N2 at 4° C. for overnight. Aliquots (100 μL) of KRB supplemented with 0.01% (w/v) BSA were added to the cells immediately prior to hypoxia. To create a hypoxia condition, a hypoxic chamber (Stem Cell Technologies, USA) was used to produce an in vitro hypoxia challenge (Chiu, P. Y. et al., Molecular and cellular biochemistry 350, 237-250, 2011). In essence, the cells were placed in the sealed chamber and the chamber was flushed with pure N2 for 5 min at a flow rate of 20 mL/min, then, all sealable connectors were closed. After that, the chamber was transferred to an incubator and the cells in the chamber were subjected to 3 h incubation at 37° C. to induced hypoxia. Reoxygenation was initiated by opening the chamber and then replacing the KRB with fresh DMEM medium, the cells were then cultured in an incubator under normoxic conditions (95% air/5% CO2) at 37° C. for another 4 h.
The cells were seeded at the density of 8×10^4 cells/well in a 96-well plate. […] The control normal group was always maintained in normal DMEM and put in the incubator under normoxic atmosphere (95% air/5% CO2). For pharmaceutical blockages, the cells were treated with mifepristone (an inhibitor of GR, 100 μM), tamoxifen (an inhibitor of ER, 100 μM), L-NAME (an inhibitor of NOS, 10 μM), LY294002 (an inhibitor of PI3K, 40 μM), Akt inhibitor IV (an inhibitor of Akt protein kinase, 10 μM), U0126 (an inhibitor of Erk1/2, 40 μM) right before the pretreatment of AP1 (200 μg/mL).
The cell viability was evaluated by MVS assay (Sathishkumar, K. et al., Free Radicals and Antioxidant Protocols, 51-61, 2010). Briefly, at the end of the cell culture, the cells were overlaid with 100 μL of 2×mitochondrial viability stain in each well containing 100 μL of medium and then incubated under normoxic condition (95% air/5% CO2) for 4 h in the dark. The fluorescent intensity was measured at excitation 550 nm and emission 590 nm by a TECAN Infinite M200 micro plate reader (Tecan, Durham, USA).

H9c2 cells [1] = assay: Flow cytometric analysis of cardiomyocyte apoptosis (Annexin V/PI); type: cell-based, rat; conditions: 100 μM, H/R, H/R group 46.0%
Source text: The normal group (Normal) was always maintained in normoxic condition. The cells were then stained with Annexin V-FITC and PI for apoptosis analysis by flow cytometry. Cells in the lower-left quadrant (Q3), unstained for both Annexin V-FITC and PI, are defined as viable cells. Cells in the lower-right quadrant (Q4), stained for Annexin V-FITC but negative for PI, are defined as early-medium apoptotic cells. Cells in the upper-right quadrant (Q2), positive for both Annexin V-FITC and PI, are defined as late apoptotic and necrotic populations. […] The percentage of apoptotic cells measured using the Annexin-V/PI kit for flow cytometry as manufacturer's instruction. […] Cells were re-suspended in 1× binding buffer containing propidium iodide (PI) and FITC-labelled Annexin V and incubated for 15 min at 37° C. in the dark, and analyzed with flow cytometry (FACS Vantage-BD Sciences, USA). The data was analyzed using Flow J software for determining the percent of apoptotic cells.

H9c2 cells [2] = assay: Cell morphology in the H/R model; type: cell-based, rat; conditions: 100 μM, pretreatment, H/R (FIG. 8E)
Source text: FIG. 8A through 8E show the cell morphology of H9c2 cell pretreated with the carbohydrate composition AP1 in the H/R model. […] All photos (magnification power 200×) were taken after reoxygenation.
The medium was changed every two days, and the confluent cells were passaged by trypsinization weekly. The cells passaged for three to four times were used for experiments described as below.

[3] = tested on: NO in culture medium of H9c2 cells; assay: Nitric oxide (NO) production, Griess reaction; type: cell-based, rat; conditions: L-NAME 10 μmol/L, H/R (FIG. 12)
Protocol: FIG. 12 illustrates the effect of carbohydrate composition AP1 on NO production. […] The normal group (Normal) was always maintained in normoxic condition. The changes of NO levels in culture medium of H9c2 cells following H/R injury were determined by Griess reagent.
The concentration of NO in the culture medium was determined by the Griess reaction with minor changes (Chen, X. P. et al., Journal of Neuroinflammation 9, 2012). At the end of the cell culture, 40 μL cell culture fluid, 10 μL NADPH, and 40 μL basal solution (0.03 M PBS; 1.25 mM glucose-6-phosphate; 400 U/L glucose-6-phosphate dehydrogenase; 200 U/L nitrate reeducates) was incubated in a 96 well microtiter plate for 45 min at room temperature. Next, 50 μL Griess reagent was added and the solution incubated for 20 min in the dark at room temperature. Finally, the absorbance of the samples was measured at 540 nm. Concentrations of NO in the sample were calibrated with a reference standard of sodium nitrite (NaNO2) supplied with the kit and the levels of NO were expressed as μM.

Row | Compound | effect of inhibitor on protective effects of AP1 on H/R-induced cell death (H/R-induced H9c2 cells) | also measured
1 | CC[n+]1c(/C=C/N(C)c2ccccc2)n(-c2ccccc2)c2ccc(-c3nc4ccccc4s3)cc21.[I-] [Akt inhibitor IV] | abolished the protective effects of AP1 | 
2 | CC1=NS(=O)(=O)c2cc(Cl)ccc2N1 [DZ, diazoxide] |  | apoptosis (apoptotic cell accumulation) (H9c2 cells [1]): 22.2±3.8%; protection in H/R induced cell death (H9c2 cells [2]): significant protection
3 | COC(=O)[C@@H](N)CCCNC(=N)N[N+](=O)[O-] [L-NAME] | abolished the protective effects of AP1 | NO production [3]: significantly abolished
4 | N#CC(=C(/N)Sc1ccccc1N)/C(C#N)=C(\N)Sc1ccccc1N [U0126] | abolished the protective effects of AP1 | 
5 | CC#C[C@]1(O)CC[C@H]2[C@@H]3CCC4=CC(=O)CCC4=C3[C@@H](c3ccc(N(C)C)cc3)C[C@@]21C [mifepristone] | abolished the protective effects of AP1 | 
6 | CC/C(=C(\c1ccccc1)c1ccc(OCCN(C)C)cc1)c1ccccc1 [tamoxifen] | abolished the protective effects of AP1 | 
